In ChEMBL document CHEMBL3885881, “DrugMatrix”:

Organism: Rattus norvegicus
Assay: DrugMatrix - Regimen: Daily Repeat
Assay type: toxicity, organism-based, Sprague-Dawley
Parameters: regimen Daily Repeat, gender Male, age 6-8 weeks
Settings: in vivo, sc, route subcutaneous, […]; for ABSOLUTE BASOPHIL / ABSOLUTE EOSINOPHIL / ABSOLUTE LYMPHOCYTE / ABSOLUTE MONOCYTE / ABSOLUTE SEGMENTED NEUTROPHIL / BASOPHIL / EOSINOPHIL / ERYTHROCYTE COUNT / HEMATOCRIT / HEMOGLOBIN / LEUKOCYTE COUNT / LYMPHOCYTE / MEAN CORPUSCULAR HEMOGLOBIN / MEAN CORPUSCULAR HEMOGLOBIN CONCENTRATION / MEAN CORPUSCULAR VOLUME / MONOCYTE / NEUTROPHIL / NUCLEATED RED BLOOD CELLS / PLATELET COUNT: tissue Blood; for ALANINE AMINOTRANSFERASE / ALBUMIN / ALKALINE PHOSPHATASE / ASPARTATE AMINOTRANSFERASE / BLOOD UREA NITROGEN / CARBON DIOXIDE / CHLORIDE / CHOLESTEROL / CREATINE PHOSPHOKINASE / CREATININE / GLUCOSE / LACTATE DEHYDROGENASE / LIPASE / PHOSPHORUS / POTASSIUM / SODIUM / TOTAL BILIRUBIN / TOTAL PROTEIN / URIC ACID: tissue Plasma
[1] = 0 mg/kg, 72 h, dose level Control, time 3 day
[2] = 0 mg/kg, 120 h, dose level Control, time 5 day
[3] = 2 mg/kg, 72 h, dose level Low, time 3 day

With `CCC(=O)O[C@]1(C(=O)CCl)[C@@H](C)C[C@H]2[C@@H]3CCC4=CC(=O)C=C[C@]4(C)[C@@]3(F)[C@@H](O)C[C@@]21C` [CLOBETASOL PROPIONATE] the “ABSOLUTE BASOPHIL” value [1] was 0 CELLS/uL, the “ABSOLUTE EOSINOPHIL” value [1] was 42.67 CELLS/uL and the “ABSOLUTE LYMPHOCYTE” value [1] was 10202 CELLS/uL. The “ABSOLUTE MONOCYTE” value [1] was 261.5 CELLS/uL, the “ABSOLUTE SEGMENTED NEUTROPHIL” value [1] was 2193.83 CELLS/uL and the BASOPHIL [1] was 0%. For the same compound, the EOSINOPHIL [1] was 0.33%, the “ERYTHROCYTE COUNT” value [1] was 5.63 x10E6/uL and the HEMATOCRIT [1] was 35.35%. The HEMOGLOBIN [1] was 13.07 G/DL, the “LEUKOCYTE COUNT” value [1] was 12.7 x10E3/uL and the LYMPHOCYTE [1] was 81.17%. For the same compound, the “MEAN CORPUSCULAR HEMOGLOBIN” value [1] was 23.23 pg, the “MEAN CORPUSCULAR HEMOGLOBIN CONCENTRATION” value [1] was 36.97 G/DL and the “MEAN CORPUSCULAR VOLUME” value [1] was 62.82 fL. The MONOCYTE [1] was 2%, the NEUTROPHIL [1] was 16.5% and the “NUCLEATED RED BLOOD CELLS” value [1] was 0 /100WBC. The “PLATELET COUNT” value [1] was 1180.33 x10E3/uL, the “ALANINE AMINOTRANSFERASE” value [1] was 48.67 u/L and the ALBUMIN [1] was 4.08 G/DL. The “ALKALINE PHOSPHATASE” value [1] was 360.67 u/L, the “ASPARTATE AMINOTRANSFERASE” value [1] was 85.5 u/L and the “BLOOD UREA NITROGEN” value [1] was 17.83 mg/dL. The “CARBON DIOXIDE” value [1] was 26.17 mmol/L, the CHLORIDE [1] was 101.83 MEQ/L and the CHOLESTEROL [1] was 71 mg/dL. For the same compound, the “CREATINE PHOSPHOKINASE” value [1] was 515.17 u/L, the CREATININE [1] was 0.22 mg/dL and the GLUCOSE [1] was 192.5 mg/dL. For the same compound, the “LACTATE DEHYDROGENASE” value [1] was 214.67 u/L, the LIPASE [1] was 8.5 u/L and the PHOSPHORUS [1] was 12.95 mg/dL. For the same compound, the POTASSIUM [1] was 6.39 MEQ/L, the SODIUM [1] was 142.38 MEQ/L and the “TOTAL BILIRUBIN” value [1] was 0.18 mg/dL. The “TOTAL PROTEIN” value [1] was 5.95 G/DL, the “URIC ACID” value [1] was 1.83 mg/dL and the “ABSOLUTE BASOPHIL” value [2] was 0 CELLS/uL. For the same compound, the “ABSOLUTE EOSINOPHIL” value [2] was 188.5 CELLS/uL, the “ABSOLUTE LYMPHOCYTE” value [2] was 12360.83 CELLS/uL and the “ABSOLUTE MONOCYTE” value [2] was 64.33 CELLS/uL. For the same compound, the “ABSOLUTE SEGMENTED NEUTROPHIL” value [2] was 1986.33 CELLS/uL, the BASOPHIL [2] was 0% and the EOSINOPHIL [2] was 1.33%. The “ERYTHROCYTE COUNT” value [2] was 5.52 x10E6/uL, the HEMATOCRIT [2] was 35.82% and the HEMOGLOBIN [2] was 13.25 G/DL. For the same compound, the “LEUKOCYTE COUNT” value [2] was 14.6 x10E3/uL, the LYMPHOCYTE [2] was 84.5% and the “MEAN CORPUSCULAR HEMOGLOBIN” value [2] was 24.05 pg. For the same compound, the “MEAN CORPUSCULAR HEMOGLOBIN CONCENTRATION” value [2] was 36.98 G/DL, the “MEAN CORPUSCULAR VOLUME” value [2] was 64.97 fL and the MONOCYTE [2] was 0.5%. For the same compound, the NEUTROPHIL [2] was 13.67%, the “NUCLEATED RED BLOOD CELLS” value [2] was 0 /100WBC and the “PLATELET COUNT” value [2] was 1297.83 x10E3/uL. For the same compound, the “ALANINE AMINOTRANSFERASE” value [2] was 51.17 u/L, the ALBUMIN [2] was 4.08 G/DL and the “ALKALINE PHOSPHATASE” value [2] was 393.17 u/L. The “ASPARTATE AMINOTRANSFERASE” value [2] was 111 u/L, the “BLOOD UREA NITROGEN” value [2] was 18.17 mg/dL and the “CARBON DIOXIDE” value [2] was 25 mmol/L. For the same compound, the CHLORIDE [2] was 105.17 MEQ/L, the CHOLESTEROL [2] was 65.5 mg/dL and the “CREATINE PHOSPHOKINASE” value [2] was 911.5 u/L. For the same compound, the CREATININE [2] was 0.21 mg/dL, the GLUCOSE [2] was 183 mg/dL and the “LACTATE DEHYDROGENASE” value [2] was 189 u/L. It also gave an LIPASE [2] of 8.33 u/L, a PHOSPHORUS [2] of 12.78 mg/dL and a POTASSIUM [2] of 6.05 MEQ/L. The SODIUM [2] was 144.57 MEQ/L, the “TOTAL BILIRUBIN” value [2] was 0.25 mg/dL and the “TOTAL PROTEIN” value [2] was 5.83 G/DL. For the same compound, the “URIC ACID” value [2] was 1.58 mg/dL, the “ABSOLUTE BASOPHIL” value [3] was 0 CELLS/uL and the “ABSOLUTE EOSINOPHIL” value [3] was 0 CELLS/uL. The “ABSOLUTE LYMPHOCYTE” value [3] was 788.33 CELLS/uL, the “ABSOLUTE MONOCYTE” value [3] was 9 CELLS/uL and the “ABSOLUTE SEGMENTED NEUTROPHIL” value [3] was 1836 CELLS/uL. For the same compound, the BASOPHIL [3] was 0%, the EOSINOPHIL [3] was 0% and the “ERYTHROCYTE COUNT” value [3] was 5.93 x10E6/uL. For the same compound, the HEMATOCRIT [3] was 37.1%, the HEMOGLOBIN [3] was 13.23 G/DL and the “LEUKOCYTE COUNT” value [3] was 2.63 x10E3/uL. The LYMPHOCYTE [3] was 30%, the “MEAN CORPUSCULAR HEMOGLOBIN” value [3] was 22.33 pg and the “MEAN CORPUSCULAR HEMOGLOBIN CONCENTRATION” value [3] was 35.67 G/DL. The “MEAN CORPUSCULAR VOLUME” value [3] was 62.57 fL, the MONOCYTE [3] was 0.33% and the NEUTROPHIL [3] was 69.67%. For the same compound, the “NUCLEATED RED BLOOD CELLS” value [3] was 0 /100WBC, the “PLATELET COUNT” value [3] was 1219.67 x10E3/uL and the “ALANINE AMINOTRANSFERASE” value [3] was 121.33 u/L. The ALBUMIN [3] was 4.93 G/DL, the “ALKALINE PHOSPHATASE” value [3] was 505.33 u/L and the “ASPARTATE AMINOTRANSFERASE” value [3] was 281.67 u/L. The “BLOOD UREA NITROGEN” value [3] was 25.67 mg/dL, the “CARBON DIOXIDE” value [3] was 21.33 mmol/L and the CHLORIDE [3] was 99.33 MEQ/L. The CHOLESTEROL [3] was 138.33 mg/dL, the “CREATINE PHOSPHOKINASE” value [3] was 1714.67 u/L and the CREATININE [3] was 0.33 mg/dL. For the same compound, the GLUCOSE [3] was 547 mg/dL, the “LACTATE DEHYDROGENASE” value [3] was 291 u/L and the LIPASE [3] was 10 u/L. For the same compound, the PHOSPHORUS [3] was 12.6 mg/dL, the POTASSIUM [3] was 5.98 MEQ/L and the SODIUM [3] was 140.33 MEQ/L. The “TOTAL BILIRUBIN” value [3] was 0.2 mg/dL, the “TOTAL PROTEIN” value [3] was 7.07 G/DL and the “URIC ACID” value [3] was 2.33 mg/dL.
